Results reported in patent US20250017914A1, “6-AZA-QUINOLINE DERIVATIVES AND RELATED USES” (Black Diamond Therapeutics, Inc., priority 2021, published 2025).

Target: T1, BaF3 BRAF-KIAA1549 fusion cells (Homo sapiens, UniProt P15056)
T1 construct: The BRAF-KIAA1549 fusion mutant was subcloned into pMXs-IRES-Blasticidin (RTV-016, Cell Biolabs, San Diego, CA); No tag given; Q9HCM3 (UPF0606 protein KIAA1549)
Assay: BaF3 BRAF-KIAA1549 fusion cell proliferation assay (CellTiterGlo, 96 hours)
Assay type: cell-based
How it was run: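 BaF3 cells retrovirally transduced with BRAF-KIAA1549 fusion and blasticidin-selected were plated at 7×10^4 c/well in RPMI, 10% heat-inactivated FBS, 1% L-glutamine, and exposed to compound for 96 hours. Growth was read as ATP content by CellTiterGlo luminescence. IC50 was fitted by Levenberg-Marquardt, normalised to DMSO-treated cells.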

T1 sequence (P15056 whole entry, change not shown, the tested form may be a part): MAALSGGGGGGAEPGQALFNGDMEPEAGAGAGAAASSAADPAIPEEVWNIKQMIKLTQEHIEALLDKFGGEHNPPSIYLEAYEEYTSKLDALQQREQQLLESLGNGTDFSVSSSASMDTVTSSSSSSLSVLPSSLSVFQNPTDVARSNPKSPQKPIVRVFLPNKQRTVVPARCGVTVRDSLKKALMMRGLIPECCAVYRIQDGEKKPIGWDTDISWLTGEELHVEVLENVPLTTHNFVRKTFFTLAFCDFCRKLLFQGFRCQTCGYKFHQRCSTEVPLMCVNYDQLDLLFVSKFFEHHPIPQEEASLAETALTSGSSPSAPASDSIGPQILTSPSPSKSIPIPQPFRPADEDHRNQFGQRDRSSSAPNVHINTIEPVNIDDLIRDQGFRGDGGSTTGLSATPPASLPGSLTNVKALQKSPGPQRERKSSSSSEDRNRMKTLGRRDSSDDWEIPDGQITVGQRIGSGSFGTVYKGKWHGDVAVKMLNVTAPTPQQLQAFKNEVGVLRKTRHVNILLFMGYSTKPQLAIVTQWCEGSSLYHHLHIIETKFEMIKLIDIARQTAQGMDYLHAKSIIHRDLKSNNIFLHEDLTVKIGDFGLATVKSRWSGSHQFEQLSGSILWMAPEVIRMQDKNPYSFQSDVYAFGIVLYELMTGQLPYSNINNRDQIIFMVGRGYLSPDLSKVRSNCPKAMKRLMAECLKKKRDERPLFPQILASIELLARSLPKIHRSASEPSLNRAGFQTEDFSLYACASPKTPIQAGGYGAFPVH

SMILES	GI50 (Table A1)	GI50 (Table A2)
CNc1cc2ncc(-c3cc(NC(=O)c4ccnc(C(F)F)c4)cnc3C)cc2cn1 [Compound 28, 2-(Difluoromethyl)-N-(6-methyl-5-(7-(methylamino)-1,6-naphthyridin-3-yl)pyridin-3-yl)isonicotinamide]	0.1 to 0.5 µM	–
CNc1cc2ncc(-c3cc(NC(=O)c4nccc(C(F)(F)F)c4Cl)cnc3C)cc2cn1 [Compound 26, 3-Chloro-N-(6-methyl-5-(7-(methylamino)-1,6-naphthyridin-3-yl)pyridin-3-yl)-4-(trifluoromethyl)picolinamide]	0.02 to 0.1 µM	–
CNc1cc2ncc(-c3cc(NC(=O)c4cnc5n4CCCC5C)ccc3C)cc2cn1 (centres unmarked) [Compound 214, 8-methyl-N-(4-methyl-3-(7-(methylamino)-1,6-naphthyridin-3-yl)phenyl)-5,6,7,8-tetrahydroimidazo[1,2-a]pyridine-3-carboxamide]	–	0.02 to 0.1 µM
CNc1cc2ncc(-c3cc(NC(=O)c4cnc5n4CC(C(F)(F)F)CC5)ccc3C)cc2cn1 (centres unmarked) [Compound 220, N-(4-methyl-3-(7-(methylamino)-1,6-naphthyridin-3-yl)phenyl)-6-(trifluoromethyl)-5,6,7,8-tetrahydroimidazo[1,2-a]pyridine-3-carboxamide]	–	0.02 to 0.1 µM
CCC(OC)c1ccnc(C(=O)Nc2cnc(C)c(-c3cnc4cc(NC)ncc4c3)c2)c1 (centres unmarked) [Compound 260, 4-(1-methoxypropyl)-N-(6-methyl-5-(7-(methylamino)-1,6-naphthyridin-3-yl)pyridin-3-yl)picolinamide]	–	0.02 to 0.1 µM
CNc1cc2ncc(-c3cc(NC(=O)N(C)c4cc(C(F)F)ccn4)ccc3C)cc2cn1 [Compound 189, 1-(4-(difluoromethyl)pyridin-2-yl)-1-methyl-3-(4-methyl-3-(7-(methylamino)-1,6-naphthyridin-3-yl)phenyl)urea]	–	0.1 to 0.5 µM
CNc1cc2ncc(-c3ccc(F)c(NC(=O)c4cc(C(C)(C)C#N)ccn4)c3)cc2cn1 [Compound 45, 4-(2-Cyanopropan-2-yl)-N-(2-fluoro-5-(7-(methylamino)-1,6-naphthyridin-3-yl)phenyl)picolinamide]	0.1 to 0.5 µM	–
CNc1cc2ncc(-c3cc(NC(=O)c4ccnc(C5(F)CC5)c4)ccc3C)cc2cn1 [Compound 18, 2-(1-Fluorocyclopropyl)-N-(4-methyl-3-(7-(methylamino)-1,6-naphthyridin-3-yl)phenyl)isonicotinamide]	< 0.02 µM	–
CNc1cc2ncc(-c3cc(NC(=O)c4cc(C(F)(F)F)c(C)cn4)ccc3C)cc2cn1 [Compound 5, 5-Methyl-N-(4-methyl-3-(7-(methylamino)-1,6-naphthyridin-3-yl)phenyl)-4-(trifluoromethyl)picolinamide]	0.02 to 0.1 µM	–
CNc1cc2ncc(-c3cc(C(=O)Nc4cc(C(C)(C)C#N)ccn4)cnc3C)cc2cn1 [Compound 59, N-(4-(2-Cyanopropan-2-yl)pyridin-2-yl)-6-methyl-5-(7-(methylamino)-1,6-naphthyridin-3-yl)nicotinamide]	0.02 to 0.1 µM	–
CNc1cc2ncc(-c3cc(NC(=O)c4cnc5n4CCCC5)cnc3C)cc2cn1 [Compound 209, N-(6-methyl-5-(7-(methylamino)-1,6-naphthyridin-3-yl)pyridin-3-yl)-5,6,7,8-tetrahydroimidazo[1,2-a]pyridine-3-carboxamide]	–	≥ 0.5 µM
CNc1cc2ncc(-c3cc(NC(=O)c4cc(C(C)(C)C#N)ccn4)c(F)c(F)c3C)cc2cn1 [Compound 51, 4-(2-Cyanopropan-2-yl)-N-(2,3-difluoro-4-methyl-5-(7-(methylamino)-1,6-naphthyridin-3-yl)phenyl)picolinamide]	≥ 0.5 µM	–
CNc1cc2ncc(-c3cc(NC(=O)c4n[nH]c5c4CN(C)CC5)cnc3C)cc2cn1 [Compound 244, 5-methyl-N-(6-methyl-5-(7-(methylamino)-1,6-naphthyridin-3-yl)pyridin-3-yl)-4,5,6,7-tetrahydro-1H-pyrazolo[4,3-c]pyridine-3-carboxamide]	–	≥ 0.5 µM
CNc1cc2ncc(-c3cc(NC(=O)c4cc(C(C)(C)C#N)ccn4)c(F)cc3Cl)cc2cn1 [Compound 37, N-(4-Chloro-2-fluoro-5-(7-(methylamino)-1,6-naphthyridin-3-yl)phenyl)-4-(2-cyanopropan-2-yl)picolinamide]	0.02 to 0.1 µM	–
CNc1cc2ncc(-c3cc(NC(=O)c4cnc5n4C[C@H](C)CC5)ccc3C)cc2cn1 (single isomer, unassigned) [Compound 230]	–	0.02 to 0.1 µM
CNc1cc2ncc(-c3cc(NC(=O)c4noc5c4CC(F)(F)CC5)cnc3C)cc2cn1 [Compound 247, 5,5-difluoro-N-(6-methyl-5-(7-(methylamino)-1,6-naphthyridin-3-yl)pyridin-3-yl)-4,5,6,7-tetrahydrobenzo[d]isoxazole-3-carboxamide]	–	0.02 to 0.1 µM
CNc1cc2ncc(-c3cc(NC(=O)c4ccnc(C5(F)CC5)c4)cnc3C)cc2cn1 [Compound 33, 2-(1-Fluorocyclopropyl)-N-(6-methyl-5-(7-(methylamino)-1,6-naphthyridin-3-yl)pyridin-3-yl)isonicotinamide]	< 0.02 µM	–
CNc1cc2ncc(-c3cc(NC(=N)c4cc(C(F)(F)F)ccn4)cnc3C)cc2cn1 [Compound 64, N-(6-Methyl-5-(7-(methylamino)-1,6-naphthyridin-3-yl)pyridin-3-yl)-4-(trifluoromethyl)picolinimidamide]	≥ 0.5 µM	–
CNc1cc2ncc(-c3cc(NC(=O)[C@@H](C)n4cnc(C(F)(F)F)n4)ccc3C)cc2cn1 (single isomer, unassigned) [Compound 69]	0.1 to 0.5 µM	–
CNc1cc2ncc(-c3cc(NC(=O)c4ccnc(C(C)(C)F)c4)c(F)cc3C)cc2cn1 [Compound 222, N-(2-fluoro-4-methyl-5-(7-(methylamino)-1,6-naphthyridin-3-yl)phenyl)-2-(2-fluoropropan-2-yl)isonicotinamide]	–	0.02 to 0.1 µM
CNc1ncc2cc(-c3cc(NC(=O)c4ccnc(C5(F)CC5)c4)ccc3C)cnc2c1Cl [Compound 269, N-[3-[8-chloro-7-(methylamino)-1,6-naphthyridin-3-yl]-4-methyl-phenyl]-2-(1-fluorocyclopropyl)pyridine-4-carboxamide]	–	0.1 to 0.5 µM
CNc1cc2ncc(-c3cc(NC(=O)c4noc5c4C[C@H](C)CC5)ccc3C)cc2cn1 (single isomer, unassigned) [Compound 237]	–	0.02 to 0.1 µM
CNc1cc2ncc(-c3cc(NC(=O)c4cc(C(C)(C)C#N)ccn4)c(F)cc3F)cc2cn1 [Compound 43, 4-(2-Cyanopropan-2-yl)-N-(2,4-difluoro-5-(7-(methylamino)-1,6-naphthyridin-3-yl)phenyl)picolinamide]	0.02 to 0.1 µM	–
CNc1cc2ncc(-c3cc(NC(=O)c4cnc5n4C(C)CCC5)ccc3C)cc2cn1 (centres unmarked) [Compound 205, 5-methyl-N-(4-methyl-3-(7-(methylamino)-1,6-naphthyridin-3-yl)phenyl)-5,6,7,8-tetrahydroimidazo[1,2-a]pyridine-3-carboxamide]	–	0.1 to 0.5 µM
CNc1cc2ncc(-c3cc(NC(=O)c4cccc5c4NC(=O)C5(C)C)ccc3C)cc2cn1 [Compound 215, 3,3-dimethyl-N-(4-methyl-3-(7-(methylamino)-1,6-naphthyridin-3-yl)phenyl)-2-oxoindoline-7-carboxamide]	–	0.02 to 0.1 µM
CNc1cc2ncc(-c3cc(NC(=O)c4ccnc(C(F)(F)F)c4)cnc3C)cc2cn1 [Compound 27, N-(6-Methyl-5-(7-(methylamino)-1,6-naphthyridin-3-yl)pyridin-3-yl)-2-(trifluoromethyl)isonicotinamide]	< 0.02 µM	–
